From patent US20020037559A1, “PROCESS FOR PRODUCING N-PROTECTED D-PROLINE DERIVATIVES” (priority 1996, published 2002)
Entries after “also recorded” stand apart in the source; their conditions may differ.

Columns and labels:
N-acyl-L-proline acylase [1] = assay: Inducers of N-acyl-L-proline acylase, resting cells tested against N-Z-L-proline and N-Z-D-proline; assay type: cell-based, Arthrobacter sp. HSZ5; details: for Induction of the enzymatic activity (N-acyl-L-proline acylase): 1 g/l added to minimal medium with fructose 5 g/l and L-glutamate 2 g/l, proline detected by HPLC
Protocol: Arthrobacter sp. HSZ5 was grown in minimal medium (Example 1) using fructose (5 g/l) as the C source and L-glutamate (2 g/l) as the N source.

[2] = tested on: N-acyl-L-proline acylase of Arthrobacter sp. HSZ5; assay: Effect of product inhibition on the activity of the N-acyl-L-proline acylase; assay type: cell-based; details: for Inhibition of the enzymatic activity of N-acyl-L-proline acylase: cells pre-incubated 30 minutes (30° C., pH 6.4) with product, then 30° C., pH 6.5, 50 g/l N-Z-L-proline; for Manner of inhibition: from dependence of inhibition on concentration
Protocol: Arthrobacter sp. HSZ5 was grown (30° C., 120 rpm) in the medium described in Table 1 using fructose (5 […]) as the C or N source. After reaching the desired cell density, the cells were harvested by centrifugation, washed in sodium chloride solution (0.9%) and finally also resuspended in the latter. […] As the 100% value, the result of the batch at pH=7.0 was employed. d) Effect of product inhibition on the activity of the N-acyl-L-proline acylase of Arthrobacter sp. HSZ5 cells having N-acyl-L-proline acylase activity were prepared as described under 9a). […] As the 100% value, the results of the batch was employed here which had been incubated without addition of one of the products.

Arthrobacter sp. HSZ5 [3] = assay: Enzymatic hydrolysis of N-Z-DL-proline by resting cells; assay type: cell-based; details: after 60 minutes; N-Z-DL-proline 50 g/l, OD650=30, 30° C., pH 7.0, HPLC
Protocol: a) Arthrobacter sp. […] The cells were harvested and washed as described previously. The resting cells (OD650=30) were incubated at 30° C. with N-Z-DL-proline (50 g/l) under pH stasis (pH 7.0) and with stirring.

N-acyl-L-proline acylase [4] = assay: Substrate specificity of N-acyl-L-proline acylase; assay type: biochemical, Arthrobacter sp. HSZ5
Source text: The enzymes according to the invention, the N-acyl-L-proline acylases, can be obtained, for example, by customary expert disruption of the described microorganism cells, preferably the enzymes are obtained from Arthrobacter sp. HSZ5 (DSM 10329). For this, for example, the ultrasound, French press or lysozyme method can be used. The enzymes are characterized by the following properties:
N-acyl-L-proline acylase, characterized by the following properties:

Bacillus simplex K2 = assay: Growth using N-protected amino acids as the sole N source; assay type: cell-based; details: minimal medium, fructose 5 g/l as C source, N source 5 g/l, 30° C., 120 rpm
Protocol: (§1) Arthrobacter sp. HSZ5, Alcaligenes xylosoxidans ssp. denitrificans HSZ17, Agrobacterium/Rhizobium HSZ30, Bacillus simplex K2, Alcaligenes piechaudii K4 and Pseudomonas putida […] were grown (30° C., 120 rpm) in the medium described in Table 1 using fructose (5 g/l) as the C source. As the sole N source (5 g/l), in each case various N-protected amino acids were added. On reaching a cell density of OD650>0.5, the batch was assessed as positive.

Pseudomonas putida K32 = assay: as above; assay type: cell-based; details: minimal medium, fructose 5 g/l as C source, N source 5 g/l, 30° C., 120 rpm
Protocol: as §1

[5] = tested on: Agrobacterium/Rhizobium HSZ30; assay: as above; assay type: cell-based; details: minimal medium, fructose 5 g/l as C source, N source 5 g/l, 30° C., 120 rpm
Protocol: as §1

Arthrobacter sp. HSZ5 [6] = assay: as above; assay type: cell-based; details: minimal medium, fructose 5 g/l as C source, N source 5 g/l, 30° C., 120 rpm
Protocol: as §1

[7] = tested on: Alcaligenes piechaudii K4; assay: as above; assay type: cell-based; details: minimal medium, fructose 5 g/l as C source, N source 5 g/l, 30° C., 120 rpm
Protocol: as §1

[8] = tested on: Alcaligenes xylosoxidans ssp. denitrificans HSZ17; assay: as above; assay type: cell-based; details: minimal medium, fructose 5 g/l as C source, N source 5 g/l, 30° C., 120 rpm
Protocol: as §1

Arthrobacter sp. HSZ5 [9] = assay: Biotransformation of N-Z-DL-proline in 450 l fermenter; assay type: cell-based; details: pH 7.5-8.5, 30° C.
Source text: d) Arthrobacter sp. […] The enzymatic activity was then induced by addition of 4 kg of 50% (w/w) N-Z-DL-proline solution. […] The cells were removed by ultracentrifugation from the 320 kg of culture finally obtained and an aliquot (1444 g) of the cell-free fermentation broth was worked up as described under 6a).

With `O=C(O)C1CCCN1C(=O)OCc1ccccc1` (racemic) [N-Z-DL-proline] the “Induction of the enzymatic activity (N-acyl-L-proline acylase)” value (N-acyl-L-proline acylase [1]) was “induced the desired enzymatic activity”.
With `O=C(O)[C@@H]1CCCN1` [L-proline] the “Inhibition of the enzymatic activity of N-acyl-L-proline acylase” value (shortened to “Inhibition … of N-acyl-L-proline acylase”) [2] was “no inhibition of the enzymatic activity at all even in high concentration”.
With `O=C(O)[C@H]1CCCN1C(=O)OCc1ccccc1` [N-Z-D-proline, N-benzyloxycarbonyl-D-proline] the “Hydrolysis by resting cells” value (Arthrobacter sp. HSZ5 [3]) was “unchanged”, the “Inhibition … of N-acyl-L-proline acylase” value [2] was “drastic lowering of the enzyme activity with increasing concentration” and the “Inhibition … of N-acyl-L-proline acylase” value ([2]; listed as N-benzyloxycarbonyl-D-proline) was “inhibitory action”. The Manner of inhibition [2] was “competitive inhibitor”.
With `C[C@H](NC(=O)OCc1ccccc1)C(=O)O` [N-Z-L-alanine, N-benzyloxycarbonyl-L-alanine] the “Substrate specificity (hydrolysis by the enzyme)” value (N-acyl-L-proline acylase [4]) was “hydrolysed”, the “Growth using N-protected amino acid as the sole N source” value (“Growth using N-protected amino acid” for short) (Bacillus simplex K2) was “+ (On reaching a cell density of OD650>0.5, the batch was assessed as positive)” and the “Growth using N-protected amino acid” value (Pseudomonas putida K32) was “+ (On reaching a cell density of OD650>0.5, the batch was assessed as positive)”. For the same compound, the “Growth using N-protected amino acid” value [5] was “+ (On reaching a cell density of OD650>0.5, the batch was assessed as positive)” and the “Growth using N-protected amino acid” value (Arthrobacter sp. HSZ5 [6]) was “+ (On reaching a cell density of OD650>0.5, the batch was assessed as positive)”.
`O=C(O)[C@@H]1CCCN1C(=O)OCc1ccccc1` [N-Z-L-proline, N-benzyloxycarbonyl-L-proline] was tested, and the “Hydrolysis by resting cells” value (Arthrobacter sp. HSZ5 [3]) was “almost completely hydrolysed”, the “Growth using N-protected amino acid” value (Bacillus simplex K2) was “+ (On reaching a cell density of OD650>0.5, the batch was assessed as positive)” and the “Growth using N-protected amino acid” value [7] was “+ (On reaching a cell density of OD650>0.5, the batch was assessed as positive)”. The “Growth using N-protected amino acid” value [8] was “+ (On reaching a cell density of OD650>0.5, the batch was assessed as positive)”, the “Growth using N-protected amino acid” value (Pseudomonas putida K32) was “+ (On reaching a cell density of OD650>0.5, the batch was assessed as positive)” and the “Growth using N-protected amino acid” value [5] was “+ (On reaching a cell density of OD650>0.5, the batch was assessed as positive)”. The “Growth using N-protected amino acid” value (Arthrobacter sp. HSZ5 [6]) was “+ (On reaching a cell density of OD650>0.5, the batch was assessed as positive)”, the “Induction of the enzymatic activity (N-acyl-L-proline acylase)” value (N-acyl-L-proline acylase [1]) was “induced the desired enzymatic activity” and the “Acceptance as substrate by induced resting cells” value (N-acyl-L-proline acylase [1]; resting cells, tested against N-Z-L-proline and N-Z-D-proline) was “accepted as the substrate”. For the same compound, the “Maximal rate of hydrolysis” value (Arthrobacter sp. HSZ5 [9]) was “about 12 g of N-Z-L-proline hydrolysed/l×h”.
In the case of `O=C(O)[C@@H]1CCC(=O)N1C(=O)OCc1ccccc1` [N-Z-L-pyroglutamate, N-benzyloxycarbonyl-L-pyroglutamate], the “Growth using N-protected amino acid” value (Bacillus simplex K2) was “+ (On reaching a cell density of OD650>0.5, the batch was assessed as positive)”, the “Growth using N-protected amino acid” value [7] was “+ (On reaching a cell density of OD650>0.5, the batch was assessed as positive)” and the “Growth using N-protected amino acid” value [8] was “+ (On reaching a cell density of OD650>0.5, the batch was assessed as positive)”. The “Growth using N-protected amino acid” value (Pseudomonas putida K32) was “+ (On reaching a cell density of OD650>0.5, the batch was assessed as positive)”, the “Growth using N-protected amino acid” value [5] was “+ (On reaching a cell density of OD650>0.5, the batch was assessed as positive)” and the “Growth using N-protected amino acid” value (Arthrobacter sp. HSZ5 [6]) was “+ (On reaching a cell density of OD650>0.5, the batch was assessed as positive)”.
For `O=C(N[C@@H](CO)C(=O)O)OCc1ccccc1` [N-Z-L-serine], the “Growth using N-protected amino acid” value (Pseudomonas putida K32) was “+ (On reaching a cell density of OD650>0.5, the batch was assessed as positive)” and the “Growth using N-protected amino acid” value (Arthrobacter sp. HSZ5 [6]) was “+ (On reaching a cell density of OD650>0.5, the batch was assessed as positive)”.
In the case of `CN(CC(=O)O)C(=O)OCc1ccccc1` [N-Z-sarcosine], the “Growth using N-protected amino acid” value (Arthrobacter sp. HSZ5 [6]) was “+ (On reaching a cell density of OD650>0.5, the batch was assessed as positive)”.
For `CC(=O)N1CCC[C@H]1C(=O)O` [N-acetyl-L-proline], the “Growth using N-protected amino acid” value [8] was “+ (On reaching a cell density of OD650>0.5, the batch was assessed as positive)”, the “Growth using N-protected amino acid” value (Pseudomonas putida K32) was “+ (On reaching a cell density of OD650>0.5, the batch was assessed as positive)” and the “Growth using N-protected amino acid” value [5] was “+ (On reaching a cell density of OD650>0.5, the batch was assessed as positive)”. For the same compound, the “Growth using N-protected amino acid” value (Arthrobacter sp. HSZ5 [6]) was “+ (On reaching a cell density of OD650>0.5, the batch was assessed as positive)”.
`O=C(O)[C@@H]1CCCN1C(=O)c1ccccc1` [N-benzoyl-L-proline] was tested, and the “Growth using N-protected amino acid” value (Pseudomonas putida K32) was “+ (On reaching a cell density of OD650>0.5, the batch was assessed as positive)” and the “Growth using N-protected amino acid” value (Arthrobacter sp. HSZ5 [6]) was “+ (On reaching a cell density of OD650>0.5, the batch was assessed as positive)”.
`CC(C)COC(=O)N1CCC[C@H]1C(=O)O` [N-isobutoxycarbonyl-L-proline] was tested, and the “Growth using N-protected amino acid” value [7] was “+ (On reaching a cell density of OD650>0.5, the batch was assessed as positive)”, the “Growth using N-protected amino acid” value (Pseudomonas putida K32) was “+ (On reaching a cell density of OD650>0.5, the batch was assessed as positive)” and the “Growth using N-protected amino acid” value (Arthrobacter sp. HSZ5 [6]) was “+ (On reaching a cell density of OD650>0.5, the batch was assessed as positive)”.
`O=C(O)[C@@H]1CCCN1C(=O)Cc1ccccc1` [N-phenylacetyl-L-proline] was tested, and the “Growth using N-protected amino acid” value [7] was “+ (On reaching a cell density of OD650>0.5, the batch was assessed as positive)” and the “Growth using N-protected amino acid” value (Arthrobacter sp. HSZ5 [6]) was “+ (On reaching a cell density of OD650>0.5, the batch was assessed as positive)”.
In the case of `O=C(O)CCC(=O)N1CCC[C@H]1C(=O)O` [N-succinyl-L-proline], the “Growth using N-protected amino acid” value (Pseudomonas putida K32) was “+ (On reaching a cell density of OD650>0.5, the batch was assessed as positive)”.
With `OCc1ccccc1` [benzyl alcohol] the “Inhibition … of N-acyl-L-proline acylase” value [2] was “drastic lowering of the enzyme activity with increasing concentration; also recorded: inhibitory action” and the Manner of inhibition [2] was “non-competitive”.
